Test results reported in PMC7008171 (Frontiers in Pharmacology, 2020).
Several values for one entry are separate records, joined by “and”; a condition that tells them apart may be missing. Equal entries are not always repeated. Marks after values point to notes of the source that are not given here.

Tests used:
[1] = Pharmacokinetic study in Beagle dogs (i.v., i.g., supralingual, sublingual; crossover, single dose);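 further: Single-dose crossover across four periods with one-week washout, plasma drug levels quantified by LC-MS/MS in positive ESI mode, lower quantification limit 0.2 ng/mL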; details: three-compartmental fit of i.v. profile in Beagle dogs
Description: (§1) The dogs were kept still for 2 min. A dose of 1 mg/body was administrated.
(§2) Four healthy Beagle dogs (male:female, 1:1) weighting 9.04 ± 1.88 kg (Certificate No. 20150005001131), purchased from Shanghai Jambo Biological Technology Co., Ltd (Shanghai, China), were used in this study. The study protocol was reviewed and approved by the Animal Management and Ethic Committee of the China State Institute of Pharmaceutical Industry. Dogs were housed individually in stainless steel cages. Tap water was given ad-libitum and food was provided once daily. Dogs were fasted for 12 h before drug administration. Blank blood samples were withdrawn prior to the administration of the drugs. Subsequently, blood samples were taken from forelimb vein at 0.167, 0.333, 0.5, 0.75, 1.0, 1.5, 2.0, 3.0, 4.0, 6.0, 8.0, 12, 24, and 32 h into heparin sodium-containing centrifuge tubes which were then centrifuged for 5 min at 3,000 rpm. The supernatant was collected and stored at -20 °C in the refrigerator until further analysis.
(§3) The main pharmacokinetic parameters of maximum plasma concentration (Cmax), peak time (Tmax), area under the concentration-time curve from 0 h to the time of last measurable concentration (AUC0-t), and AUC from 0 to infinity (AUC0-∞), mean residue time (MRT), apparent volume of distribution (Vd), elimination half-life (t1/2), and in vivo clearance (CL) were calculated by non-compartmental approach using the software of DAS 2.0 ([Cheng et al., 2016]).
(§4) Calibration curves were constructed in the concentration range of 0.2–200 ng/ml with a lower limit of quantification (LLOQ) of 0.2 ng/ml. […] The HPLC system (Shimadzu Co. Ltd, Kyoto, Japan) equipped with a triple quadruple mass spectrometer (Shimadzu Co. Ltd, Kyoto, Japan) operating with ESI in the positive mode was used for the quantification of the analytes. Mobile phases consisted of methanol and water (35:65, v/v), both containing 0.05% formic acid and 5 mM ammonium formate. The flow rate was set at 0.3 ml/min. Ten μl of the aliquot was injected into the Inspire C18 column (2.1 mm×50 mm, 3 μm, Dikma Technologies Inc, Beijing, China) at a column oven of 40 °C. […] Direct protein precipitation using acetonitrile was used for the extraction of analytes from dog plasma.

[2] = design: method as in Mannens et al., 1994; details: dog plasma; ref Mannens et al., 1994; cited from earlier work
[3] = ref PMDA label, 2018; cited from earlier work
in vivo = details: both, Beagle, dog, plasma, 1 mg
Description: as §1, §2, §3, §4

[4] = taken orally; ref Huang et al., 1993; de Leon et al., 2010; Shimizu et al., 2017; cited from earlier work
[5] = sublingual tablets (Intermezzo), OCCAT model; ref Xia et al., 2015; cited from earlier work

SMILES: Cc1nc2n(c(=O)c1CCN1CCC(c3noc4cc(F)ccc34)CC1)CCCC2 [risperidone]
- K12 [1]: 16.352 ^e h^-1
- K13 [1]: 0.4625 ^e h^-1
- K21 [1]: 9.007 ^e h^-1
- K31 [1]: 0.4103 ^e h^-1
- V2 (volume of distribution of the first peripheral compartment) [1]: 0.5699 ^e L/kg
- V3 (volume of distribution of the second peripheral compartment) [1]: 0.3538 ^e L/kg
- fu (plasma unbound fraction) [2]: 0.083 ^c
- Solubility (pH 6.8) [3]: 0.9 ^d mg/ml
- AUC(0-inf) (in vivo): 102 ± 43.3 ng·h/mL
- AUC(0-t) (in vivo): 98.9 ± 40.9 ng·h/mL
- Cmax (in vivo): 52.6 ± 10.6 ng/mL
- MRT inf (in vivo): 1.93 ± 0.52 h
- MRT last (in vivo): 1.78 ± 0.41 h
- Tmax (in vivo): 0.67 ± 0.38 h
- Vd (in vivo): 17.8 ± 3.06 L
- clearance (in vivo): 184 mL/min
- half-life (in vivo): 1.21 ± 0.4 h
- AUC(0-inf) (in vivo; iv): 179 ± 115 ng·h/mL
- AUC(0-t) (in vivo; iv): 177 ± 113 ng·h/mL
- Cmax (in vivo; iv): 215 ± 56.4 ng/mL
- MRT inf (in vivo; iv): 1.4 ± 0.89 h
- MRT last (in vivo; iv): 1.3 ± 0.8 h
- Tmax (in vivo; iv): 0.03 h
- Vd (in vivo; iv): 12.8 L and 0.314 L/kg
- clearance (in vivo; iv): 128 mL/min and 9.84 mL/min/kg
- half-life (in vivo; iv): 1.37 ± 0.82 h
- AUC(0-inf) (in vivo; other: supralingual): 102 ± 57.4 ng·h/mL
- AUC(0-t) (in vivo; other: supralingual): 97.3 ± 54.4 ng·h/mL
- Cmax (in vivo; other: supralingual): 59.4 ± 7.32 ng/mL
- MRT inf (in vivo; other: supralingual): 1.73 ± 0.82 h
- MRT last (in vivo; other: supralingual): 1.5 ± 0.71 h
- Tmax (in vivo; other: supralingual): 0.62 ± 0.58 h
- Vd (in vivo; other: supralingual): 17.2 ± 7.7 L
- clearance (in vivo; other: supralingual): 199 mL/min
- half-life (in vivo; other: supralingual): 1.13 ± 0.5 h
- AUC(0-inf) (in vivo; po): 91.3 ± 48.6 ng·h/mL
- AUC(0-t) (in vivo; po): 90 ± 48.7 ng·h/mL
- Cmax (in vivo; po): 45.9 ± 7.6 ng/mL
- MRT inf (in vivo; po): 1.79 ± 0.74 h
- MRT last (in vivo; po): 1.71 ± 0.75 h
- Tmax (in vivo; po): 0.71 ± 0.53 h
- half-life (in vivo; po): 0.92 ± 0.41 h
- Oral bioavailability [4]: about 70%

SMILES: Cc1ccc(-c2nc3ccc(C)cn3c2CC(=O)N(C)C)cc1 [zolpidem]
- Estimated absorption via the oral mucosa [5]: about 18%
